Laboratory results published in article PMC10343654, “Evaluation of Novel B1R/B2R Agonists Containing TRIOZAN™ Nanoparticles for Targeted Brain Delivery of Antibodies in a Mouse Model of Alzheimer Disease” (Molecules, 2023).
Blank lines part the entries; values can stand above or below the molecule they belong to. Square brackets hold non-standard residues; d marks the D form. Peptide text beside a SMILES is read from it. ξ: configuration not given here. Oic = O=C(O)[C@@H]1C[C@@H]2CCCC[C@@H]2N1; d2Nal = N[C@H](Cc1ccc2ccccc2c1)C(=O)O; Hyp = O=C(O)[C@@H]1C[C@@H](O)CN1; 2Thi = N[C@@H](Cc1cccs1)C(=O)O; Gly(N-cHex) = O=C(O)CNC1CCCCC1; ξαMeF = CC(N)(Cc1ccccc1)C(=O)O; Orn = NCCC[C@H](N)C(=O)O; βAla = NCCC(=O)O; Mpa = O=C(O)CCS

How the values were obtained:
human kinin B2R = target: T1, human kinin B2R (Homo sapiens, UniProt P30411); assay: Competition binding assay on HEK293 cells stably expressing human kinin B2R, radioligand [3H]BK; conditions: displacement of [3H]BK, read-out: hB2R IC50
T1 construct: expressed in transfected cells
T1 sequence (P30411 1-391): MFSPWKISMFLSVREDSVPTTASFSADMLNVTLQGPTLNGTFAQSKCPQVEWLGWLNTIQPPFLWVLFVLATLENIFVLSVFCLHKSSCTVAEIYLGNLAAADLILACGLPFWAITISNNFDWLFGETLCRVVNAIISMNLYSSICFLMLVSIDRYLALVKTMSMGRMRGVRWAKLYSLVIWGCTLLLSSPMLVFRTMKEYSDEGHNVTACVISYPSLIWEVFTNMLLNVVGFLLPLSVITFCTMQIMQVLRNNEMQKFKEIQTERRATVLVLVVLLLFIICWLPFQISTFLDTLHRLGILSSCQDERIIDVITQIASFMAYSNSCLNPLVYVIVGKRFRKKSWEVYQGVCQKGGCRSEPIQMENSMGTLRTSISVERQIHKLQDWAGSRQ
Protocol: (§1) Competition binding assays were carried out essentially as described previously. Briefly, HEK293 cells stably expressing either human kinin B1R or B2R were grown in 24-well plates and incubated with 4 nM [^3H]Lys[[…]]desArg^9BK (for B1R) or with 1 nM [^3H]BK/well (for B2R) in serum-free DMEM for 1-2 h in the absence or presence of increasing concentrations of competitors ([…]-10^-5 M for peptides; 10^-10-10^-4 g/mL for peptides-coupled NPs). Radioactivity of samples was measured by a β-scintillation counter (PerkinElmer, Woodbridge, ON, Canada). Binding affinities of compounds were expressed in terms of IC50 values-the concentrations of competing compounds (i.e., free peptides, TMC-peptides conjugates and peptides coupled to NPs) causing 50% displacement of specific binding of the radioligand. Data are means of 2-3 independent experiments.

human kinin B1R = target: T2, human kinin B1R (Homo sapiens, UniProt P46663); assay: Competition binding assay on HEK293 cells stably expressing human kinin B1R, radioligand [3H]Lys[Leu8]desArg9BK; conditions: displacement of radioligand, read-out: hB1R IC50
T2 construct: expressed in transfected cells
T2 sequence (P46663 1-353): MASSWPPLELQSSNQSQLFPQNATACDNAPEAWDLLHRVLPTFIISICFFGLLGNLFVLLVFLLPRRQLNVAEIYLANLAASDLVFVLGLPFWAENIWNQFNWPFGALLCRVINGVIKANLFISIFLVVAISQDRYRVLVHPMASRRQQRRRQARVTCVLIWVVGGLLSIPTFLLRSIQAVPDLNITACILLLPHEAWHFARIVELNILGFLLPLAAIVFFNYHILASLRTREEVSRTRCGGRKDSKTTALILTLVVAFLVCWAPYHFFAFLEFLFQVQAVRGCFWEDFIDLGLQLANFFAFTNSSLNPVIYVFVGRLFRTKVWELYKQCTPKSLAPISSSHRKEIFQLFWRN
Protocol: as §1

[1] = parameters: method as in PMID 30837797; conditions: in rodents; cited from earlier work

Molecule: TRIOZAN™-MAB7053: TRIOZAN (trimethyl chitosan) conjugated with 7 equivalents of B2R agonist peptide MAB7053 (RPPGXSXXR; Residue 3 is Hyp (trans-4-hydroxy-L-Pro); residues 5 and 8 are Thi (alpha-(2-thienyl)-L-Ala); residue 7 is N-cyclohexyl-Gly; free C-terminal acid; N-terminal Mpa-betaAla spacer, thioether-linked via M)
IC50 (human kinin B2R): 10.6 µM

Molecule: CC[C@H](C)[C@H](NC(=O)[C@@H](Cc1ccc2ccccc2c1)NC(=O)[C@H](CO)NC(=O)C(C)(Cc1ccccc1)NC(=O)CNC(=O)[C@@H]1CCCN1C(=O)[C@@H]1C[C@@H]2CCCC[C@@H]2N1C(=O)[C@H](CCCNC(=N)N)NC(=O)[C@H](CCCN)NC(C)=O)C(=O)O (stereo partly drawn) [R954, AcOrn-Arg-Oic-Pro-Gly-(αMe)Phe-Ser-DβNal-Ile-OH] (Ac-[Orn]R[Oic]PG[ξαMeF]S[d2Nal]I-OH)
IC50 (human kinin B2R): > 10 µM
IC50 (human kinin B1R): 2 nM

B1: ANX-005: C1q function blocking humanized IgG4 mAb (Annexon Biosciences) (antibody, chains of the INN, looked up, V domains shown)
VH: QVQLVQSGAELKKPGASVKVSCKSSGYHFTSYWMHWVKQAPGQGLEWIGVIHPNSGSINYNEKFESRVTITVDKSTSTAYMELSSLRSEDTAVYYCAGERDSTEVLPMDYWGQGTTVTVSS
VL: DVQITQSPSSLSASLGERATINCRASKSINKYLAWYQQKPGKAPKLLIYSGSTLQSGIPARFSGSGSGTDFTLTISSLEPEDFAMYYCQQHNEYPLTFGQGTKLEIK
half-life (t½) [1]: ~ 18 h

Continued, values first:

IC50 (human kinin B2R): 1.18 µM
Molecule: N=C(N)NCCC[C@H](NC(=O)[C@H](Cc1cccs1)NC(=O)CN(C(=O)[C@H](CO)NC(=O)[C@H](Cc1cccs1)NC(=O)CNC(=O)[C@@H]1C[C@@H](O)CN1C(=O)[C@@H]1CCCN1C(=O)[C@H](CCCNC(=N)N)NC(=O)CCNC(=O)CCS)C1CCCCC1)C(=O)O [MAB7053, Mpa-βAla-Arg-Pro-Hyp-Gly-Thi-Ser-^NChg-Thi-Arg-OH] ([Mpa][βAla]RP[Hyp]G[2Thi]S[Gly(N-cHex)][2Thi]R-OH)

IC50 (human kinin B1R): 10 nM
Molecule: CC[C@H](C)[C@H](NC(=O)[C@@H](Cc1ccc2ccccc2c1)NC(=O)[C@H](CO)NC(=O)C(C)(Cc1ccccc1)NC(=O)CNC(=O)[C@@H]1CCCN1C(=O)[C@@H]1C[C@@H]2CCCC[C@@H]2N1C(=O)[C@H](CCCNC(=N)N)NC(=O)[C@H](CCCN)NC(=O)CCNC(=O)CCS)C(=O)O (stereo partly drawn) [MAB7122, Mpa-βAla-Orn-Arg-Oic-Pro-Gly-(αMe)Phe-Ser-DβNal-Ile-OH] ([Mpa][βAla][Orn]R[Oic]PG[ξαMeF]S[d2Nal]I-OH)

IC50 (human kinin B2R): 0.002 µM
IC50 (human kinin B1R): > 10000 nM
Molecule: N=C(N)NCCC[C@H](NC(=O)[C@H](Cc1cccs1)NC(=O)CN(C(=O)[C@H](CO)NC(=O)[C@H](Cc1cccs1)NC(=O)CNC(=O)[C@@H]1C[C@@H](O)CN1C(=O)[C@@H]1CCCN1C(=O)[C@@H](N)CCCNC(=N)N)C1CCCCC1)C(=O)O [NG291, H-Arg-Pro-Hyp-Gly-Thi-Ser-^NChg-Thi-Arg-OH] (H-RP[Hyp]G[2Thi]S[Gly(N-cHex)][2Thi]R-OH)

IC50 (human kinin B2R): > 10 µM
IC50 (human kinin B1R): 0.5 nM
Molecule: CNCC(=O)N[C@@H](CCCCN)C(=O)N[C@@H](CCCNC(=N)N)C(=O)N1CCC[C@H]1C(=O)N1CCC[C@H]1C(=O)NCC(=O)N[C@@H](Cc1ccccc1)C(=O)N[C@@H](CO)C(=O)N1CCC[C@H]1C(=O)N[C@H](Cc1ccccc1)C(=O)O [NG29, Sar-Lys-Arg-Pro-Pro-Gly-Phe-Ser-Pro-DPhe-OH]

IC50 (human kinin B1R): 0.8 nM
Molecule: N=C(N)NCCC[C@H](NC(=O)[C@H](CCCCN)NC(=O)CCNC(=O)CCS)C(=O)N1CCC[C@H]1C(=O)N1CCC[C@H]1C(=O)NCC(=O)N[C@@H](Cc1ccccc1)C(=O)N[C@@H](CO)C(=O)N1CCC[C@H]1C(=O)N[C@H](Cc1ccccc1)C(=O)O [MAB7108, Mpa-βAla-Lys-Arg-Pro-Pro-Gly-Phe-Ser-Pro-DPhe-OH]
